Experimental findings from patent publication US9573957B2 (Boehringer Ingelheim International GmbH, priority 2013, dated 2017) are described below.

Usually pIC50 stands for the IC50 on a negative log10 scale, so that one unit is a factor of ten.

For one test, the target named is human LTA4 hydrolase (Homo sapiens (Human), UniProt P09960). The experiment in a line: LTA4H Enzyme assay (peptidase, Arg-AMC cleavage). The following applies: LTA4H Enzyme 1 nM, Arg-AMC substrate 50 μM, room temperature 1 h, fluorescence. Format: biochemical. As to the method: The compounds of the invention are assessed for the ability to interact with human LTA4 hydrolase in an enzymatic assay that measures the ability of the enzyme to cleave the peptide bond of arginyl-aminomethylcoumarin (Arg-AMC). LTA4H Enzyme (1 nM final), Arg-AMC substrate (50 μM final), and compound are combined in a reaction buffer (50 mM Tris-HCl (pH 7.5), 100 mM KCl, 0.5% bovine serum albumin) at room temperature for 1 h. The formation of product is assessed by measuring the fluorescence of aminomethylcoumarin product (excitation wavelength 380 nm/emission wavelength 460 nm).
Chain of human LTA4 hydrolase (P09960 whole entry): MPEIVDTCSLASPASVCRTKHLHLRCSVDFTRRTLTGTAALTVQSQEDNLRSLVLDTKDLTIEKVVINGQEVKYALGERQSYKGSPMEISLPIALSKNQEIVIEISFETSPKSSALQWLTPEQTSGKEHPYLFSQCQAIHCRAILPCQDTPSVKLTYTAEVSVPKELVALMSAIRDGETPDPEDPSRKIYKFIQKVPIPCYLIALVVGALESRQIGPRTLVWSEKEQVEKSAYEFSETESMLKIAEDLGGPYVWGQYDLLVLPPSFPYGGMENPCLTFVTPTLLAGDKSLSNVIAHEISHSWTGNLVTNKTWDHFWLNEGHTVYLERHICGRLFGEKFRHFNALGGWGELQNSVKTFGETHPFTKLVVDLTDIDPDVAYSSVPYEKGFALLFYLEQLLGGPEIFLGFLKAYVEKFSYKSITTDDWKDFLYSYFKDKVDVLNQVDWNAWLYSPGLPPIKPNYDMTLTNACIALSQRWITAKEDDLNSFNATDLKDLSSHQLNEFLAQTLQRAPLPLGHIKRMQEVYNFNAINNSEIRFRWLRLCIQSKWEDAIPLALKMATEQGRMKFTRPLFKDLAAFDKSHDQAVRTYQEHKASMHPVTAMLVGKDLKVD

Test [1] has as its system synthesis of LTB4 in human whole blood. In words: LTB4 production inhibition assay in human whole blood (HWB). Format: cell-based. The following applies: heparinized human whole blood, 15 min at 37° C., Calcimycin 20 μM 30 min, plasma LTB4 by HTRF. As to the method:
The compounds of the invention are additionally tested in a human whole blood (HWB) assay to determine their ability to inhibit the synthesis of LTB4 in a cellular system. Compounds are combined with heparinized human whole blood and incubated for 15 minutes at 37° C. Calcimycin (20 μM final, prepared in phosphate-buffered saline, pH 7.4) is then added and the mixture is incubated for another 30 minutes at 37° C. The samples are centrifuged for 5 min at low speed (1500×g) and the plasma layer is removed. Plasma LTB4 concentrations are then measured using an antibody-based homogenous time-resolved fluorescence method (CisBio, Bedford, Mass.).
For orientation: TR-FRET usually uses a lanthanide donor and a delayed reading to cut background.

pIC50: −log10 of the molar value.

For `CC(=O)NC1CCN(Cc2ccc3cc(Oc4ncc(-c5ccn[nH]5)cn4)ccc3c2)CC1` [Example 28, N-(1-{6-[5-(2H-Pyrazol-3-yl)-pyrimidin-2-yloxy]-naphthalen-2-ylmethyl}-piperidin-4-yl)-acetamide], the pIC50 was 8.74 on human LTA4 hydrolase and 6.57 in test [1].

With `O=C1[C@@H](O)CCN1C1CCN(Cc2ccc3cc(Oc4ncc(-c5ccn[nH]5)cn4)ccc3c2)CC1` [Example 29, (S)-3-Hydroxy-1-(1-{6-[5-(2H-pyrazol-3-yl)-pyrimidin-2-yloxy]-naphthalen-2-ylmethyl}-piperidin-4-yl)-pyrrolidin-2-one], the results for the negative-log IC50 (pIC50) (at human LTA4 hydrolase; in test [1]) were 8.74 and 6.66, respectively.

For the molecule `C[C@H](O)C(=O)N1CCN(Cc2ccc3cc(Oc4ncc(-c5ccn[nH]5)cn4)ccc3c2)CC1` [Example 30, (S)-2-Hydroxy-1-(4-{6-[5-(2H-pyrazol-3-yl)-pyrimidin-2-yloxy]-naphthalen-2-ylmethyl}-piperazin-1-yl)-propan-1-one], the pIC50 against human LTA4 hydrolase is 8.89; in test [1], 6.64.

As for `CN(C(=O)CO)C1CCN(Cc2ccc3cc(Oc4ncc(-c5ccn[nH]5)cn4)ccc3c2)CC1` [Example 31, 2-Hydroxy-N-methyl-N-(1-{6-[5-(2H-pyrazol-3-yl)-pyrimidin-2-yloxy]-naphthalen-2-ylmethyl}-piperidin-4-yl)-acetamide], the values for the pIC50 (against human LTA4 hydrolase; in test [1]) were 8.82 and 6.57, respectively.

Turning to `CC(=O)N1CC(CN(C)Cc2ccc3cc(Oc4ncc(-c5ccn[nH]5)cn4)ccc3c2)C1` [Example 32, 1-{3-[(Methyl-{6-[5-(2H-pyrazol-3-yl)-pyrimidin-2-yloxy]-naphthalen-2-ylmethyl}-amino)-methyl]-azetidin-1-yl}-ethanone], the negative logarithm of the IC50 (pIC50) on human LTA4 hydrolase is 8.96; in test [1], 6.74.

With `O=C1OCCN1C1CCN(Cc2ccc3cc(Oc4ncc(-c5ccn[nH]5)cn4)ccc3c2)CC1` [Example 33, 3-(1-{6-[5-(2H-Pyrazol-3-yl)-pyrimidin-2-yloxy]-naphthalen-2-ylmethyl}-piperidin-4-yl)-oxazolidin-2-one], the figures for the pIC50 (on human LTA4 hydrolase; in test [1]) were 9.04 and 6.82, respectively.

For `CN(C)C(=O)N1CCN(Cc2ccc3cc(Oc4ncc(-c5ccn[nH]5)cn4)ccc3c2)CC1` [Example 34, 4-{6-[5-(2H-Pyrazol-3-yl)-pyrimidin-2-yloxy]-naphthalen-2-ylmethyl}-piperazine-1-carboxylic acid dimethylamide], the pIC50 against human LTA4 hydrolase is 9.09; in test [1], 6.37.

As for `CC(C)(C)C(=O)N1CCN(Cc2ccc3cc(Oc4ncc(-c5ccn[nH]5)cn4)ccc3c2)CC1` [Example 35, 2,2-Dimethyl-1-(4-{6-[5-(2H-pyrazol-3-yl)-pyrimidin-2-yloxy]-naphthalen-2-ylmethyl}-piperazin-1-yl)-propan-1-one], the pIC50 at human LTA4 hydrolase was 8.57; in test [1], 6.02.

`O=C1CCCN1C1CCN(Cc2ccc3cc(Oc4ncc(-c5ccn[nH]5)cn4)ccc3c2)CC1` [Example 36, 1-(1-{6-[5-(2H-Pyrazol-3-yl)-pyrimidin-2-yloxy]-naphthalen-2-ylmethyl}-piperidin-4-yl)-pyrrolidin-2-one]: the pIC50 at human LTA4 hydrolase is 8.72; in test [1], 6.66.

Regarding `CCC(=O)N1CCN(Cc2ccc3cc(Oc4ncc(-c5ccn[nH]5)cn4)ccc3c2)CC1` [Example 37, 1-(4-{6-[5-(2H-Pyrazol-3-yl)-pyrimidin-2-yloxy]-naphthalen-2-ylmethyl}-piperazin-1-yl)-propan-1-one], the values for the pIC50 (against human LTA4 hydrolase; in test [1]) were 9.37 and 6.92, respectively.

As for `CN(C)C(=O)C1CCN(Cc2ccc3cc(Oc4ncc(-c5ccn[nH]5)cn4)ccc3c2)CC1` [Example 38, 1-{6-[5-(2H-Pyrazol-3-yl)-pyrimidin-2-yloxy]-naphthalen-2-ylmethyl}-piperidine-4-carboxylic acid dimethylamide], the pIC50 against human LTA4 hydrolase was 8.92; in test [1], 6.74.
